Data from patent US5763439A, “Pyridazinone derivatives or their salts, processes for their production, and anti-shock agents containing them” (Ishihara Sangyo Kaisha Ltd., priority 1993, dated 1998).

Columns and labels:
[1] = system: enteric hemorrhage of each rat; assay: Test Example 1: inhibition of enteric hemorrhage induced by intravenous lipopolysaccharide (E. coli) in rats; assay type: in vivo, SD male rats; conditions: ip, 30 min before LPS 10 mg/kg i.v., 1 h after LPS, read-out: Inhibition rate; for inhibition in vivo at 12.5 mg/kg: 12.5 mg/kg i.p.; for inhibition in vivo at 50 mg/kg: 50 mg/kg i.p.; for inhibition in vivo at 25 mg/kg: 25 mg/kg i.p.
Method: A drug having a test compound dissolved in the form of its Na^+ salt or Cl^- salt in saline or suspended in saline containing 0.5% by weight of carboxymethyl cellulose (manufactured by Nakalai Tesque K. K., hereinafter referred to simply as CMC), was intraperitonially injected to SD male rats of seven weeks old. […] One hour after the injection of the lipopolysaccharide, enteric hemorrhage of each rat was inspected, and the degree of hemorrhage was evaluated by the following ratings:
(§1) 2: Slight subepithelial congestion
(§2) 4: Subepithelial congestion over a wide range and slight submucous congestion
6: Submucous congestion over a wide range, flow out of blood from submucous tissues and necrosis
For the control, the test was conducted in the same manner except that no test compound was added.
The inhibition rate was obtained by the following formula.
(§3) Inhibition rate (%)=(A-B)/A×100
(§4) B: rating of a rat administered with a test compound

[2] = system: enteric hemorrhage of each rat; assay: Test Example 5: inhibition of enteric hemorrhage induced by intravenous PAF in rats; assay type: in vivo, SD male rats; conditions: 12.5 mg/kg i.p. 30 min before PAF (10 μg/ml, 1 ml/kg i.v.); 1 h after PAF
Method: A drug having a test compound dissolved in the form of its Na^+ salt or or Cl^- salt in saline or suspended in saline containing 0.5% by weight of CMC, was intraperitonially injected to SD male rats of seven weeks old so that the dose of the test compound would be 12.5 mg/kg. 30 minutes after the injection of the drug, a solution (containing 1% by weight of dimethylsulfoxide) having PAF dissolved in saline to a concentration of 10 μg/ml, was intravenously injected into the tail vein of each rat in an amount of 1 ml/kg.
One hour after the injection of PAF, enteric hemorrhage of each rat was inspected, and the degree of hemorrhage was evaluated by the following ratings:
as §1, §2
6: Submucous congestion over a wide range, flow out of blood from the submucous tissues and necrosis
as §3, §4

SD male rats = assay: Test Example 3: survival of rats after intravenous lipopolysaccharide (E. coli); assay type: in vivo; conditions: 50 mg/kg i.p. 30 min before and again 3 h after LPS 10 mg/kg i.v.; 48 h; control 0%
Method: A drug having a test compound suspended in saline containing 0.5% by weight of CMC, was intraperitonially administered to SD male rats of seven weeks old so that the dose would be 50 mg/kg. 30 minutes after the injection of the drug, lipopolysaccharide derived from E. coli (manufactured by Difco Company, Product No. 0127:B8) was intravenously injected into the tail vein of each rat so that the dose would be 10 mg/kg. Three hours after the injection of the lipopolysaccharide, the drug was again intraperitonially administered in the same amount.
(§5) Survival rate (%)=(number of survived animals/number of tested

DDY male mice = assay: Test Example 4: survival of mice after intravenous platelet-activating factor (PAF); assay type: in vivo; conditions: 100 mg/kg i.p. 1 h before PAF (10 μg/ml, 15 ml/kg i.v.); 1 h after PAF; control 0% (Nos. 21, 71, 78) or 14% (Nos. 22, 47)
Method: A drug having a test compound dissolved in the form of its Na^+ salt or or Cl^- salt in saline or suspended in saline containing 0.5% by weight of CMC, was intraperitonially injected to DDY male mice of five weeks old so that the dose would be 100 mg/kg. One hour after the injection of the drug, a solution (containing 1% by weight of dimethylsulfoxide) having a platelet-activating factor (PAF) dissolved in saline to a concentration of 10 μg/ml, was intravenously injected into the tail vein of each mouse in an amount of 15 ml/kg.
One hour after the injection of PAF, survival or death of each mouse was observed, and the survival rate was obtained by the following formula, whereby with Compound Nos. 21, 47, 71 and 78, the survival rate was 100%, and with Compound No. 22, the survival rate was 80%.
Further, for the control, the test was conducted in the same manner except that no test compound was added, whereby with each control corresponding to the test group for each of Compound Nos. 21, 71 and 78, the survival rate was 0%, and in the case of Compound Nos. 22 and 47, the survival rate of the control was 14%.
as §5

[3] = Test Example 2: Acute Toxicity; conditions: mouse, in vivo, ip, DDY male mice, five mice per group, read-out: 50% lethal dose LD50
Method: Using DDY male mice of five weeks old, each group consisted of five mice. A test compound was suspended in saline containing 0.5% by weight of CMC and intraperitonially injected at a dose of 0.1 ml/10 g. 24 hours after the injection, survival or death was observed, and the number of death/the number of tested animals was obtained, and the 50% lethal dose LD50 was estimated, whereby LD50 of each of Compound Nos. 4, 9, 10, 15, 21, 25, 30, 33, 37, 44, 47, 58, 60 and 67 was at least 100 mg/kg.

Structure (SMILES)	inhibition in vivo at 12.5 mg/kg [1] [%]	inhibition in vivo at 50 mg/kg [1] [%]	LD50 at 24 h [3] [mg/kg]	other results
CCC(=O)Nc1c(NCc2ccncc2)cnn(C(C)(C)C)c1=O [Compound No. 28, 2-tert-butyl-4-propionylamide-5-(4-pyridylmethylamino)pyridazin-3-(2H)-one]	42	83	–	–
Cc1c(NC(=O)c2ccncc2)cnn(C(C)(C)C)c1=O [Compound No. 1, 2-tert-butyl-4-methyl-5-(4-pyridylcarbonylamino)pyridazin-3-(2H)-one]	–	–	–	inhibition in vivo at 25 mg/kg [1]: 96%
COCc1c(N(C)Cc2ccncc2)cnn(C)c1=O [Compound No. 73, 4-methoxymethyl-2-methyl-5-(N-methyl-4-pyridylmethylamino)pyridazin-3-(2H)-one]	76	–	–	Inhibition rate [2]: 92%; Survival rate (SD male rats): 75%
C[S+]([O-])c1c(NCc2ccncc2)cnn(C(C)(C)C)c1=O (stereo not shown) [Compound No. 8, 2-tert-butyl-4-methanesulfinyl-5-(4-pyridylmethylamino)pyridazin-3-(2H)-one]	72	–	–	–
CC(C)(C)n1ncc(NCc2ccncc2)c(C=O)c1=O [Compound No. 24, 2-tert-butyl-4-formyl-5-(4-pyridylmethylamino) pyridazin-3-(2H)-one]	–	100	–	–
CC(C)(C)n1ncc(NCc2ccncc2)c(C=NCc2ccncc2)c1=O [Compound No. 2, 2-tert-butyl-5-(4-pyridylmethylamino)-4-(4-pyridylmethyliminomethylidenyl)pyridazin-3-(2H)-one]	75	–	–	inhibition in vivo at 25 mg/kg [1]: 98%
CC(C)(C)n1ncc(NCc2ccncc2)c(C#N)c1=O [Compound No. 21, 2-tert-butyl-4-cyano-5-(4-pyridylmethylamino)pyridazin-3-(2H)-one]	65	100	≥ 100	Survival rate (DDY male mice): 100%; inhibition in vivo at 25 mg/kg [1]: 96%
CC(=O)N(C)c1c(NCc2ccncc2)cnn(C)c1=O [Compound No. 69, 2-methyl-4-(N-methyl)acetylamino-5-(4-pyridylmethylamino)pyridazin-3-(2H)-one]	78	–	–	Inhibition rate [2]: 100%
CON=Cc1c(NCc2ccncc2)cnn(C(C)(C)C)c1=O [Compound No. 16, 2-tert-butyl-5-(4-pyridylmethylamino)-4-methoxyiminomethylidenylpyridazin-3-(2H)-one]	–	–	–	inhibition in vivo at 100 mg/kg ([1]; 100 mg/kg i.p.): 100%
CCn1ncc(NCc2ccncc2)c(C#N)c1=O [Compound No. 47, 4-cyano-2-ethyl-5-(4-pyridylmethylamino)pyridazin-3-(2H)-one]	75	–	≥ 100	Survival rate (DDY male mice): 100%
CC(C)(C)n1ncc(NCc2ccncc2)c(N)c1=O [Compound No. 10, 4-amino-2-tert-butyl-5-(4-pyridylmethylamino)pyridazin-3-(2H)-one]	50	94	≥ 100	–
CC(C)(C)n1ncc(NCc2ccncc2)c(N(S(C)(=O)=O)S(C)(=O)=O)c1=O [Compound No. 30, 2-tert-butyl-4-N,N-bis(methanesulfonyl)amino-5-(4-pyridylmethylamino)pyridazin-3-(2H)-one]	–	–	≥ 100	–
CSc1c(NCc2ccncc2)cnn(C(C)(C)C)c1=O [Compound No. 7, 2-tert-butyl-4-methylthio-5-(4-pyridylmethylamino)pyridazin-3-(2H)-one]	78	100	–	–
COCc1c(NCc2ccncc2)cnn(C)c1=O [Compound No. 105, 4-methoxymethyl-2-methyl-5-(4-pyridylmethylamino)pyridazin-3-(2H)-one]	92	–	–	–
CC(C)(C)n1ncc(NCc2ccncc2)c(S(C)(=O)=O)c1=O [Compound No. 9, 2-tert-butyl-4-methanesulfonyl-5-(4-pyridylmethylamino)pyridazin-3-(2H)-one]	–	43	≥ 100	–
CC1CCOC(c2c(NCc3ccncc3)cnn(C(C)(C)C)c2=O)O1 (stereo not shown) [Compound No. 44, 2-tert-butyl-4-(4-methyl-1,3-dioxan-2-yl)-5-(4-pyridylmethylamino)pyridazin-3-(2H)-one]	77	–	≥ 100	–
COC(=O)c1c(NCc2ccncc2)cnn(C(C)(C)C)c1=O [Compound No. 22, 2-tert-butyl-4-methoxycarbonyl-5-(4-pyridylmethylamino)pyridazin-3-(2H)-one]	41	–	–	Survival rate (DDY male mice): 80%; inhibition in vivo at 25 mg/kg [1]: 100%
Cn1ncc(NCc2ccncc2)c(CO)c1=O [Compound No. 70, 4-hydroxymethyl-2-methyl-5-(4-pyridylmethylamino)pyridazin-3-(2H)-one]	72	–	–	Survival rate (SD male rats): 50%
